Test results taken from patent US20160022689A1, “Triazine compound for resisting coccidiosis in chickens” (SHANGHAI VETERINARY RESEARCH INSTITUTE, CHINESE ACADEMY OF …, priority 2013, published 2016).
Several values for one entry are separate records, joined by “and”; a condition that tells them apart may be missing. Equal values may be shown once. Read-outs that look alike come from different tables or passages of the source.

Columns and labels:
Eimeria tenella = assay: AZL application in preventing the coccidiosis induced by Eimeria tenella (drug in feed, infected cockerels); format: in vivo; set-up: key to ACI (anticoccidial index): ACI = (rel. weight gain + survival) − (lesion score + oocyst value); key to Cecal lesion score: average Johnson-Reid lesion score in group ×10; details: for ACI (anticoccidial index): ACI=(relative weight gain rate+survival rate)-(cecal lesion score+oocyst value); for Cecal lesion score: average lesion score in group x10; for Survival rate %: cockerels infected with 80000 sporulated oocysts of Eimeria tenella; for Relative weight gain rate %: relative to healthy control group; for Oocyst value: score from OPG ratio to infection control
Procedure: Application of AZL in Preventing the Coccidiosis Induced by Eimeria tenella
One-day-old Pudong yellow feather cockerels
If needed, it is added into the chicken compound feed without other drugs and well mixed. Two AZL concentrations are set: 5 mg/kg and 10 mg/kg.
If needed, it is added into the compound feed without other drugs and well mixed. Two drug concentrations are set: 5 mg/kg and 10 mg/kg.
4) Raw diclazuril material: If needed, it is added into the compound feed without other drugs and well mixed, with the diclazuril concentration of 1 mg/kg.
After 90 one-day-old Pudong yellow feather cockerels were raised in the healthy animal room for 14 days. They were divided into 9 groups randomly, with 10 cockerels each group. One of these groups was the healthy control group. The AZL addition groups had two different treatments (5 mg/kg and 10 mg/kg). In the groups with the addition of compounds with structural formula (IV) and (V) respectively, two concentrations were set as AZL. The diclazuril addition group at the concentration of 1 mg/kg was taken as drug control group. Besides, an infection control group was also established.
After grouping, the seven drug addition groups were fed with the feed containing specified drugs, while infection and healthy control groups were fed using pure feed without drugs. Each group drank freely. At the age of 15 day old, each cockerel in all the groups was infected with 80000 sporulated oocysts of Eimeria tenella, except for the healthy control group.
During the experimental period, food and water intake, mental state, illness and bloody stool were observed and recorded every day. At 5, 6 and 7 d after infection, the excrement in each group was collected to count the number of oocysts. The highest value was used for ACI calculation. During the experimental period, chicken death status was observed every day and the dead ones were autopsied. On the 8th day, chickens in all the groups were weighted and killed to observe and record weight gain and cecal lesion status.
1.5.1 Death rate: The percentage of the number of dead chicken because of infection to total number of experimental chicken.
1.5.2 Relative weight gain rate: The percentage of average weight gain of chickens in each infection group to that in the healthy control group
1.5.3 Cecal lesion score: It is scored by referring to the method by Johnson and Reid (Johnson J, Reid W M. Anticoccidial drugs: lesion scoring techniques in battery and floor-pan experiments with chickens.
Experimental Parasitology, 1970, 28 (1): 30-36). Cecal lesion score=average lesion score in a group×10.
1.5.4 Oocyst value: Cecal contents from all the chickens in each group were well mixed. The number of oocysts per gram (OPG) was calculated via Mc-Master's method. Ratio of oocyst number=(OPG in the negative control group or drug addition group÷OPG in the positive control group)×100% If the ratio is 0-1%, oocyst value is 0; if the ratio is 2%-25%, oocyst value is 5; if the ratio is 26%-50%, oocyst value is 10; if the ratio is 51%-75%, oocyst value is 20; if the ratio is 76%-100%, oocyst value is 40.
1.5.5 Anticoccidial index: ACI=(relative weight gain rate+survival rate)−(cecal lesion score+oocyst value)

Sprague Dawley rats = assay: Acute toxicity test (LD50) of AZL in rats, oral gavage; format: in vivo, rat; details: oral gavage once, 14 days
Procedure: (§1) Acute Toxicity Test (LD50) of AZL in Rats
(§2) AZL (99.10%): made by Shanghai Veterinary Research Institute, CAAS
(§3) Drug solvent: 0.5% sodium carboxymethyl cellulose
(§4) Before administration, AZL was added into 0.5% sodium carboxymethyl cellulose to prepare suspensions at different concentrations.
(§5) 1.2 Experimental animals: Specific pathogen-free (SPF) Sprague Dawley rats (50% female vs 50% male) were purchased from Shanghai Super-B&K laboratory animal Co., Ltd. (license number: SCXK (Hu): 2008-0016). Male and female rats were raised separately in the cages for more than 4 days before the experiments.
(§6) Through repeated preliminary experiments, the interval of LD0-LD100 was determined According to this interval, groups were divided and the interval between groups was determined. Eighty rats (180-220 g) were selected and randomly divided into 8 groups. Each group had 10 rats, with the same number of female and male. Drug dosage in 7 groups were 2358, 3000, 3817, 4856, 6178, 7860, and 10000 mg/kg, respectively. The rats in these groups received oral gavage once. The remaining one group was chosen as negative control group which was drenched orally with drug solvent. After administration, this group was continuously observed for 14 days to calculate the death rate.

[1] = as above; format: in vivo, rat; details: both sexes, Sprague Dawley, rat, in vivo, po, single oral gavage, improved Karber's method
Procedure: as §1, §2, §3, §4, §5, §6

rats = details: acute oral, improved Karber's method; cited from earlier work
[2] = drug concentration in feed 5 mg/kg
[3] = drug concentration in feed 10 mg/kg
[4] = drug concentration in feed 1 mg/kg

| SMILES | ACI (anticoccidial index) (Eimeria tenella; [2]) | Cecal lesion score (Eimeria tenella; [2]) | Survival rate % (Eimeria tenella; [2]) [%] | Relative weight gain rate % (Eimeria tenella; [2]) [%] | Oocyst value (Eimeria tenella; [2]) | ACI (anticoccidial index) (Eimeria tenella; [3]) | Cecal lesion score (Eimeria tenella; [3]) | Survival rate % (Eimeria tenella; [3]) [%] | Relative weight gain rate % (Eimeria tenella; [3]) [%] | Oocyst value (Eimeria tenella; [3]) | other results |
| --- | --- | --- | --- | --- | --- | --- | --- | --- | --- | --- | --- |
| CC(=O)Nc1ccc(Oc2ccc(-n3ncc(=O)[nH]c3=O)cc2C)cc1 [AZL, 2-{3-methyl-4-(4′-acetamidophenoxy)phenyl}-1,2,4-triazine-3,5(2H,4H)^− diketone] | 180.8 | 5 | 100 | 90.8 | 5 | 189 and 189.1 | 5 | 100 | 99.1 | 5 | ACI (anticoccidial index) (Eimeria tenella; drug concentration in feed 10 mg/kg, listed as compound with structural formula (I)): 189; Death rate % (Sprague Dawley rats; dosage 2358 mg/kg): 0%; Death rate % (Sprague Dawley rats; dosage 3000 mg/kg): 30%; Death rate % (Sprague Dawley rats; dosage 3817 mg/kg): 50%; Death rate % (Sprague Dawley rats; dosage 4856 mg/kg): 50%; Death rate % (Sprague Dawley rats; dosage 6178 mg/kg): 70%; Death rate % (Sprague Dawley rats; dosage 7860 mg/kg): 70%; Death rate % (Sprague Dawley rats; dosage 10000 mg/kg): 90%; LD50 at 14 days ([1]; 14 days observation, read-out: LD50): 4740 mg/kg; LD50 at 14 days ([1]; read-out: 95% confidence limit of LD50): 3750 to 5990 mg/kg |
| Cc1cc(-n2ncc(=O)[nH]c2=O)ccc1Oc1ccc([N+](=O)[O-])cc1 [Compound with structural formula IV, 2-{3-methyl-4-(4′-nitrophenoxy)phenyl}-1,2,4-triazine-3,5(2H,4H)-diketone, reference compound] | 182.2 | 5 | 100 | 92.2 | 5 | 190.0 | 5 | 100 | 95.0 | 0 | 95% confidence limit of LD50 (rats): 644 to 916 mg/kg; median lethal dose (LD50) (rats): 768 mg/kg |
| Cc1cc(-n2ncc(=O)[nH]c2=O)ccc1Oc1ccc(N)cc1 [Compound with structural formula V, 2-{3-methyl-4-(4′-aminophenoxy)phenyl}-1,2,4-triazine-3,5(2H,4H)^− diketone] | 151.5 | 15 | 100 | 81.5 | 15 | 158.1 | 10 | 100 | 83.1 | 15 | – |
| N#CC(c1ccc(Cl)cc1)c1c(Cl)cc(-n2ncc(=O)[nH]c2=O)cc1Cl (centres unmarked) [Diclazuril, diclazuril, reference compound] | – | – | – | – | – | – | – | – | – | – | ACI (anticoccidial index) (Eimeria tenella; [4]): 182.1; Cecal lesion score (Eimeria tenella; [4]): 5; Survival rate % (Eimeria tenella; [4]): 100%; Relative weight gain rate % (Eimeria tenella; [4]): 92.1%; Oocyst value (Eimeria tenella; [4]): 5 |
